# Experimental data: the supplement of paper PMC12592484
# Legend:
# Assay in all cases: drug sensitivity score (DSS2, normalised partial AUC of dose-response, 72 h CellTiter-Glo viability) (DSS (dimensionless)); higher = more sensitive (stronger growth inhibition / cytotoxicity); extreme values may be limits of the assay
# CAF#3 = tested on: CAF#3 (primary prostate cancer-associated fibroblasts of myCAF-like type)
# Outline: (§1)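 Viability of low-passage primary prostate cancer-associated fibroblasts, PF179T, WPMY-1, LNCaP and 22Rv1 cells was read by CellTiter-Glo 2.0 luminescence 72 h after seeding onto compounds pre-dispensed in 384-well plates at five doses over a 10,000-fold range. Readings were scaled between vehicle and positive-control wells. Sensitivity is reported as a drug sensitivity score from BREEZE, namely a partial area under the fitted logistic curve divided by the log of its upper asymptote, where higher means more sensitive.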
# CAF#1 = tested on: CAF#1 (primary prostate cancer-associated fibroblasts of myCAF-like type)
# Outline: as §1
# LNCAP = tested on: LNCAP
# Outline: as §1
# CAF#7 = tested on: CAF#7 (primary prostate cancer-associated fibroblasts of myCAF-like type)
# Outline: as §1
# CAF#4 = tested on: CAF#4 (primary prostate cancer-associated fibroblasts of iCAF-like type)
# Outline: as §1
# 22Rv1 = tested on: 22Rv1
# Outline: as §1
# CAF#2 = tested on: CAF#2 (primary prostate cancer-associated fibroblasts of iCAF-like type)
# Outline: as §1
# CAF#5 = tested on: CAF#5 (primary prostate cancer-associated fibroblasts of myCAF-like type)
# Outline: as §1
# CAF#6 = tested on: CAF#6 (primary prostate cancer-associated fibroblasts of iCAF-like type)
# Outline: as §1
# WPMY-1 = tested on: WPMY-1
# Outline: as §1
# PF179T = tested on: PF179T
# Outline: as §1
Compound,drug sensitivity score (CAF#3),drug sensitivity score (CAF#1),drug sensitivity score (LNCAP),drug sensitivity score (CAF#7),drug sensitivity score (CAF#4),drug sensitivity score (22Rv1),drug sensitivity score (CAF#2),drug sensitivity score (CAF#5),drug sensitivity score (CAF#6),drug sensitivity score (WPMY-1),drug sensitivity score (PF179T)
NS(=O)(=O)OC[C@@H]1C[C@@H](n2ccc3c(N[C@H]4CCc5ccccc54)ncnc32)C[C@@H]1O [Pevonedistat] (tested concentration range 1-10000 nM),0,4.4,29.6,5,7,18.9,13,9,5.7,12.6,6.4
FC(F)(F)c1ccc(CNc2ccc(Cc3c[nH]c4ncc(Cl)cc34)cn2)cn1 [Pexidartinib] (tested concentration range 1-10000 nM),1.2,4.8,1.4,2.7,3,0,5.9,5.1,0,0.6,1.7
CS(=O)(=O)N1CCN(Cc2cc3nc(-c4cccc5[nH]ncc45)nc(N4CCOCC4)c3s2)CC1 [Pictilisib] (tested concentration range 1-10000 nM),10.9,11.7,13.7,9.3,10.9,16.1,11.5,12,7.7,12,11.2
CC[C@@H]1C(=O)OC[C@@H]1Cc1cncn1C [Pilocarpine] (tested concentration range 4-40000 nM),0,0.8,0,0,0,0,0,1.5,0,0,0
CC(C)N(C[C@H]1O[C@@H](n2cnc3c(N)ncnc32)[C@H](O)[C@@H]1O)[C@H]1C[C@@H](CCc2nc3cc(C(C)(C)C)ccc3[nH]2)C1 [Pinometostat] (tested concentration range 0.1-1000 nM),1.5,0,0,0,0,0,0,0,0,0,0
Cc1ccc(=O)n(-c2ccccc2)c1 [Pirfenidone] (tested concentration range 1-10000 nM),0,0,0,0,0,0,0,0,0,0,0
Nc1cccc2c1C(=O)N(C1CCC(=O)NC1=O)C2=O (stereo unspecified) [Pomalidomide] (tested concentration range 1-10000 nM),0,0,0,0,0,0,0,0,0,0,0
C=CC(=O)N1CCC(Oc2cc3c(Nc4ccc(Cl)c(Cl)c4F)ncnc3cc2OC)CC1 [Poziotinib] (tested concentration range 0.1-1000 nM),0.3,0,3.9,0,0,0.5,0,0,0,1,0
CCCCc1nc2cc(/C=C/C(=O)NO)ccc2n1CCN(CC)CC [Pracinostat] (tested concentration range 1-10000 nM),9,10.7,20.3,8.4,10.6,20,13.7,10.3,9.2,20,9.9
CC[C@H](C)C(=O)O[C@H]1C[C@H](O)C=C2C=C[C@H](C)[C@H](CC[C@@H](O)C[C@@H](O)CC(=O)O)[C@H]21 [Pravastatin] (tested concentration range 1-10000 nM),0,0,0,0,0,0,0.3,0,0,0,0
C[C@]12C=CC(=O)C=C1CC[C@@H]1[C@@H]2[C@@H](O)C[C@@]2(C)[C@H]1CC[C@]2(O)C(=O)CO [Prednisolone] (tested concentration range 1-10000 nM),0,0,0,0,0,0,0,0,0,0,0
COc1cccc(OCCCN)c1-c1cc(Nc2cnc(C#N)cn2)n[nH]1 [Prexasertib] (tested concentration range 1-10000 nM),4.9,8.6,24.3,5.4,8.7,24.4,16.6,9.1,6.8,29.7,14.5
CC(C)(C)c1cc(NC(=O)Nc2ccc(-c3cn4c(n3)sc3cc(OCCN5CCOCC5)ccc34)cc2)no1 [Quizartinib] (tested concentration range 0.1-1000 nM),0,0.3,0,0,0,0,2.3,1.5,0,1.4,0
Nc1cc(F)ccc1NC(=O)/C=C/c1cnn(C/C=C/c2ccccc2)c1 [RGFP966] (tested concentration range 1-10000 nM),2.6,3.1,8.3,2.7,3.3,1.8,3.2,3.1,2.1,2.2,3.8
COC(=O)c1ccc([C@H]2c3[nH]c4ccccc4c3C[C@H](C(=O)OC)N2C(=O)CCl)cc1 [RSL3] (tested concentration range 1-10000 nM),2.5,0.7,0.9,9.5,0,0,3,0.3,0.6,0,0
Cc1cn(-c2cc(NC(=O)c3ccc(C)c(Nc4nccc(-c5cnccn5)n4)c3)cc(C(F)(F)F)c2)cn1 [Radotinib] (tested concentration range 1-10000 nM),0,0.5,0.3,0,0.1,0,0,0,0,0,0
CC(C)(C)Cn1c(N)nc2ccc(-c3[nH]c(C(C)(C)C)nc3-c3ccc(F)cc3)nc21 [Ralimetinib] (tested concentration range 1-10000 nM),2.1,0.8,11.2,0,0.1,3.8,1.9,0,0.1,2.8,0
O=C(c1ccc(OCCN2CCCCC2)cc1)c1c(-c2ccc(O)cc2)sc2cc(O)ccc12 [Raloxifene] (tested concentration range 1-10000 nM),2.4,0,2.9,0.5,0.5,2.9,0.7,0.2,0.4,5.8,0.8
Cc1nc(=O)c2cc(CN(C)c3ccc(C(=O)N[C@@H](CCC(=O)O)C(=O)O)s3)ccc2[nH]1 [Raltitrexed] (tested concentration range 0.1-1000 nM),0,3.3,11.1,0,0.8,0,4.4,2.8,0.2,14,0.3
CNC(=O)c1cc(Oc2ccc(NC(=O)Nc3ccc(Cl)c(C(F)(F)F)c3)c(F)c2)ccn1 [Regorafenib] (tested concentration range 1-10000 nM),3.7,2.8,7.2,2.7,2.4,6,3.4,3.2,1,3.8,1.9
CCOC(=O)C1=CCCC[C@H]1S(=O)(=O)Nc1ccc(F)cc1Cl [Resatorvid] (tested concentration range 1-10000 nM),5.7,0,0.4,0.3,0,0,0,0,3.6,0,0
CCOCc1nc2c(N)nc3ccccc3c2n1CC(C)(C)O [Resiquimod] (tested concentration range 1-10000 nM),0,0,0,0,0,0,0.4,0,0,0,0
CN(C)Cc1ccc(S(=O)(=O)n2ccc(/C=C/C(=O)NO)c2)cc1 [Resminostat] (tested concentration range 1-10000 nM),6,4.4,12.2,4.7,6,12.3,5.9,4.6,5.9,13.6,6
CN(C)C(=O)c1cc2cnc(Nc3ccc(N4CCNCC4)cn3)nc2n1C1CCCC1 [Ribociclib] (tested concentration range 1-10000 nM),2.9,0,7.7,3,2.7,5,4.6,2.5,2.4,0,3.7
C=CC(=O)Nc1cccc(Nc2nc(Nc3ccc(N4CCN(C(C)=O)CC4)cc3OC)ncc2C(F)(F)F)c1 [Rociletinib] (tested concentration range 0.5-5000 nM),2.1,6.6,2.6,4,6.8,6,8.3,5.2,2.6,7,5
C/C=C1\NC(=O)[C@H]2CSSCC/C=C/[C@H](CC(=O)N[C@H](C(C)C)C(=O)N2)OC(=O)[C@H](C(C)C)NC1=O [Romidepsin] (tested concentration range 0.1-1000 nM),23.1,23.1,35.5,24.4,21.4,27.9,23.4,25,26.6,30,22.5
